Data set [1] has as its system NKCC2. The arrangement: method as in Schlatter et al.[23]. The conditions noted are these: Rabbit kidney TAL; ref Schlatter et al.[23]; cited from earlier work.
In the next data set the target is T1, hNKCC1A (Homo sapiens, UniProt P55011).
T1 construct: Full-length NKCC1 (NKCC1A) comprises ~1200 amino acids; expressed in transfected cells; host or cells: Xenopus laevis oocytes injected with cRNA (pXOOM vector)
T1 sequence (P55011 1-1212): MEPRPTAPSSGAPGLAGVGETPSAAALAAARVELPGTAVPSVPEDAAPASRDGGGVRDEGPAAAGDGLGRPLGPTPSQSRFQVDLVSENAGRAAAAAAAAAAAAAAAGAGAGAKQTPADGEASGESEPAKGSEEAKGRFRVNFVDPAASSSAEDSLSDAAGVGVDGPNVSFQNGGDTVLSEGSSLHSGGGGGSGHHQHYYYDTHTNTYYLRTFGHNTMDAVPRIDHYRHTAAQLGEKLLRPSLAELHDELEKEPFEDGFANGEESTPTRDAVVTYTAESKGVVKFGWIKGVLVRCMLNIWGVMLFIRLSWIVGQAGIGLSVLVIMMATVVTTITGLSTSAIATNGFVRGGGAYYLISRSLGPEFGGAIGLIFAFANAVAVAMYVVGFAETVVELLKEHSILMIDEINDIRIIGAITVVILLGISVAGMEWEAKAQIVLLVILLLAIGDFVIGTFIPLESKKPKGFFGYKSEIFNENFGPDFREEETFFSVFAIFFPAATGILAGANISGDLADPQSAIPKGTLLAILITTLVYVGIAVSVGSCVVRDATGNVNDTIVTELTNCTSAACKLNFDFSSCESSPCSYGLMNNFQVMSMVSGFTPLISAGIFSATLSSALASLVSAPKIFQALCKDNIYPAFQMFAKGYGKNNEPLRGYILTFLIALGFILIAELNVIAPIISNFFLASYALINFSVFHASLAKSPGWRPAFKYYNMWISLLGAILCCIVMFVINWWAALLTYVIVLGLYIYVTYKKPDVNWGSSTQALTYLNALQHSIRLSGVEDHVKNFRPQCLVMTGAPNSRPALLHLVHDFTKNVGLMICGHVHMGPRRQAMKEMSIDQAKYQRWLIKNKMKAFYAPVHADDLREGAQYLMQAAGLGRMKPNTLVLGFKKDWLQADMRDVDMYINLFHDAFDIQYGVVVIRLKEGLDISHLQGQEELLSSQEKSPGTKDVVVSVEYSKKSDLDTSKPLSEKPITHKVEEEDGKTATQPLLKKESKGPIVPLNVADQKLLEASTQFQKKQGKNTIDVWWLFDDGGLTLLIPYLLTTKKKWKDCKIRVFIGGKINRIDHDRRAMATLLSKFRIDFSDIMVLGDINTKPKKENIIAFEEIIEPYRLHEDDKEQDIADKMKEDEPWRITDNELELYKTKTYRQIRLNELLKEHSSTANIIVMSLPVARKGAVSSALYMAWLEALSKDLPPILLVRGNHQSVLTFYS
The data set can be described thus: 86Rb+ uptake in hNKCC1A-expressing Xenopus laevis oocytes. Format: cell-based. The conditions noted are these: for IC50 / IC50 for hNKCC1A, IC50 (µM) (range): 86Rb+ uptake, Xenopus oocytes, 5 min, corrected for uninjected oocytes, median and range of 3–7 experiments; for Ratio hNKCC1A/ hNKCC1B: ratio of IC50s.

Another data set concerns the target T2, hNKCC1B (Homo sapiens, UniProt P55011).
T2 construct: expressed in transfected cells; host or cells: Xenopus laevis oocytes injected with cRNA (pXOOM vector)
T2 sequence (P55011 1-1196 isoform P55011-3): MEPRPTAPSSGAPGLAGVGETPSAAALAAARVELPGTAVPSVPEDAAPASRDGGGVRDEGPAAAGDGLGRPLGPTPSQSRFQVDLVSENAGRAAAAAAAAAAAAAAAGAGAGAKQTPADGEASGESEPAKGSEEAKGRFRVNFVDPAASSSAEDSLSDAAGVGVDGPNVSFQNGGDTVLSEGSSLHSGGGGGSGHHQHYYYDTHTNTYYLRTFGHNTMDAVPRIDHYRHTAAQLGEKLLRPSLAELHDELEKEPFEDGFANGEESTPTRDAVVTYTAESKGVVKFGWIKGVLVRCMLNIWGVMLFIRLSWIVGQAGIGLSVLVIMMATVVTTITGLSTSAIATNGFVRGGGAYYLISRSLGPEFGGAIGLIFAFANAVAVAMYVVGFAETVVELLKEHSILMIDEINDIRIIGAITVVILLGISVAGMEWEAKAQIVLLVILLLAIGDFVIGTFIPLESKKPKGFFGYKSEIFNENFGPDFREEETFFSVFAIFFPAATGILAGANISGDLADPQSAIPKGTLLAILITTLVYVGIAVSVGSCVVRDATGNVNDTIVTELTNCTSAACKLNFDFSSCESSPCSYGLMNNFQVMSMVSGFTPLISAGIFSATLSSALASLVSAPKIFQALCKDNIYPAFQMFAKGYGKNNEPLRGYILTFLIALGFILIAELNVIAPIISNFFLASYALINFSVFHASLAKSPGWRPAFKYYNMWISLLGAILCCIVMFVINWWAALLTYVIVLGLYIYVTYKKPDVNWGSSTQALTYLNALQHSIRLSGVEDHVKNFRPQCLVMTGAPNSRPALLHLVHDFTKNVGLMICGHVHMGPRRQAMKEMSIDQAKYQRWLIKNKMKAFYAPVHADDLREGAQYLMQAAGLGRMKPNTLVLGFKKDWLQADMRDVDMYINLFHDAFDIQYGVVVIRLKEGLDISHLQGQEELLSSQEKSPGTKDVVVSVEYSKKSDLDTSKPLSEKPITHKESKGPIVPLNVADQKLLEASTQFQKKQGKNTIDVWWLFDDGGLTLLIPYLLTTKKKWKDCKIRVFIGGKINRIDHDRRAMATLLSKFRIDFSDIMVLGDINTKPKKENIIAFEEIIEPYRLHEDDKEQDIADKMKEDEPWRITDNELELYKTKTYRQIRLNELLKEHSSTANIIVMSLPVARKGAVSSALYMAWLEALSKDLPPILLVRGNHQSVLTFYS
The data set is described as follows: 86Rb+ uptake in hNKCC1B-expressing Xenopus laevis oocytes. Type of data set: cell-based. The note with it: 5 min, corrected for uninjected oocytes, median and range of 3–7 experiments.

Data set [2] concerns NKCC2. Also on record: method as in ref Palfrey et al.[48]; Schlatter et al.[23]; Frelin et al.[49]; O’Grady et al.[50]; Glanville et al.[51]; Hannaert et al.[52]. The conditions noted are these: Rabbit kidney TAL; rat kidney TAL; NKCC2 isoforms not differentiated; ref Palfrey et al.[48]; Schlatter et al.[23]; Frelin et al.[49]; O’Grady et al.[50]; Glanville et al.[51]; Hannaert et al.[52]; cited from earlier work.

In a further data set the test system is NKCC1. The conditions noted are these: Activated state, isoforms not differentiated, turkey erythrocytes, chick cardiac cells, winter flounder intestine, ref Palfrey et al.[48], Frelin et al.[49], O’Grady et al.[50], cited from earlier work.
Another data set deals with hNKCC2 isoform A. The conditions noted are these: Xenopus oocytes; ref Gillen et al.[55]; Carota et al.[56]; read-out: IC50 (µM) NKCC2 (hA); cited from earlier work.
The test system of the next data set is hNKCC2 isoform B. The conditions noted are these: Xenopus oocytes; ref Gillen et al.[55]; Carota et al.[56]; read-out: IC50 (µM) NKCC2 (hB); cited from earlier work.
Data set [3] deals with NKCC2. The arrangement: method as in Greven[53]. The note with it: Rat kidney TAL; ref Greven[53]; cited from earlier work.
The conditions of data set [4]: in words, cited from earlier work.
The conditions of data set [5]: rats, cited from earlier work.
Details of data set [6]: method as in DrugBank database. The conditions noted are these: ref DrugBank database; cited from earlier work.
Details of data set [7]: method as in DrugBank database. The conditions noted are these: ref DrugBank database; cited from earlier work. This is another data set of the same source.
On the set-up of data set [8]: method as in ref [30] = [30]; 30. Reilly, R. F. & Jackson, E. K. Goodman & Gilman’s. The Pharmacological Basis of Therapeutics . 12th ed. Brunton, L. L., Chabner, B. A. & Knollmann, B. C. (eds), pp. 671–719 (McGraw-Hill, New York). The conditions noted are these: ref [30]; cited from earlier work.
For data set [9], the system named is NKCC2. Also on record: method as in Wittner et al.[54]. The note with it: Mouse and rabbit kidney TAL; ref Wittner et al.[54]; cited from earlier work.
Setting [10] is: mIMCD-K2 cells, rat erythrocytes and thymocytes, Schlatter et al.[23], Glanville et al.[51], Hannaert et al.[52].

Results on 15 molecules are retold here after PMC6026185 (Scientific Reports, 2018).

“Also recorded” adds a separate entry of the source. Read-outs that look alike come from different tables or passages of the source.

For `CC(c1ccc(Cl)c(Cl)c1)N1N=C(N)CC1=O` (stereo not drawn) [Muzolimine], the IC50 (in general, the concentration that inhibits the measured activity by half) with NKCC2 [1] was above 100 µM.

For the molecule `COc1ccc(Cl)cc1C(=O)NCCc1ccc(S(=O)(=O)NC(=O)NC2CCCCC2)cc1` [Glybenclamide, 5-chloro-N-(2-{4-[(cyclohexylcarbamoyl)sulfamoyl]phenyl}ethyl)-2-methoxybenzamide], the IC50 against hNKCC1A and at hNKCC1B was above 100 µM in each case. Further, the “IC50 for hNKCC1A, IC50 (µM) (range)” value at hNKCC1A (listed as glibenclamide) was “did not inhibit; also recorded: inactive”. Besides, on hNKCC1B (listed as glibenclamide), the “IC50 for hNKCC1B, IC50 (µM) (range)” value is “did not inhibit; also recorded: inactive”.

On to `NS(=O)(=O)c1cc(C(=O)O)c(NCc2ccco2)cc1Cl` [Furosemide], for which the concentration for half-maximal inhibition (IC50) with NKCC2 [2] is 3 to 7.1 µM; with NKCC1 (setting [10]), 7 to 23 µM; in the data set with hNKCC2 isoform A it was 15.1 µM; in the data set with hNKCC2 isoform B, 7.2 µM.

Take `C=C(CC)C(=O)c1ccc(OCC(=O)O)c(Cl)c1Cl` [Ethacrynic acid]: the IC50 was 1680 µM on hNKCC1A, 3070 µM against hNKCC1B and 5.1 µM with NKCC2 [1].

Turning to `NS(=O)(=O)c1cc(C(=O)O)cc(N2CCCC2)c1Oc1ccccc1` [Piretanide], the IC50 was 3.35 µM on hNKCC1A, 1.66 µM against hNKCC1B, 1 to 1.1 µM in the data set on NKCC2 [2] and 0.5 to 3 µM with NKCC1 (setting [10]). Besides, the “Ratio hNKCC1A/ hNKCC1B” value on hNKCC1A is 2.02.

Regarding `CN=C1SCC(O)(c2ccc(Cl)c(S(N)(=O)=O)c2)N1C` (stereo not drawn) [Tizolemide], the IC50 in the data set with NKCC2 [1] is above 100 µM.

On to `NS(=O)(=O)c1cc(C(=O)NN2CC3C4CCC(C4)C3C2)ccc1Cl` (stereo not drawn) [Tripamide], for which the concentration for half-maximal inhibition (IC50) on hNKCC1A and at hNKCC1B was above 1000 µM in each case.

Regarding `NS(=O)(=O)c1cc(-c2nnn[nH]2)c(NCc2cccs2)cc1Cl` [Azosemide], the IC50 at hNKCC1A was 0.246 µM; at hNKCC1B, 0.197 µM; in the data set with NKCC2 [3] it was 3 µM. Besides, on hNKCC1A, the “Ratio hNKCC1A/ hNKCC1B” value is recorded as 1.25. Further, in [4] (ref [31]), the plasma protein binding entry is given as “highly bound to plasma proteins”. For the same molecule, the brain levels in data set [5] (30 min following i.v. 20 mg/kg, below detection limit, ref [32]) is below 0.05 µg/g. The pKa – broadly, the negative logarithm of the acid dissociation constant – in data set [6] is recorded as 7.38. Further, in data set [7], the “Lipophilicity (logP)” value is recorded as 2.38. Besides, the “clinical diuretic potency relative to furosemide” value in data set [8] was “about the same diuretic potency as furosemide”.

Take `CCOC(=O)/C=C1\SC(N2CCCCC2)C(=O)N1C` (stereo not drawn) [Etozolin]: in the data set with NKCC2 [1], the IC50 is above 100 µM.

`O=C(O)COc1ccc(C(=O)c2cccs2)c(Cl)c1Cl` [Ticrynafen]: the figures for the IC50 at hNKCC1A, against hNKCC1B and in the data set with NKCC2 [1] were 489 µM, 1780 µM and 410 µM, respectively. Besides, the “Ratio hNKCC1A/ hNKCC1B” value at hNKCC1A is listed as 0.275.

For the molecule `NS(=O)(=O)c1cc(C(=O)O)cc(NCc2ccccc2)c1Oc1ccccc1` [Benzmetanide], the half-maximal inhibitory concentration (IC50) in the data set on NKCC1 was 0.05 to 0.3 µM.

With `Cc1cccc(C)c1NC(=O)c1cc(S(N)(=O)=O)c(Cl)cc1O` [Xipamide, 4-chloro-5-sulfamoyl-2′,6′-salicyloxylidide], at hNKCC1A, the IC50 was above 1750 µM and the “IC50 for hNKCC1A, IC50 (µM) (range)” value is “did not inhibit; also recorded: inactive”. Also, at hNKCC1B, the IC50 is above 1750 µM and the “IC50 for hNKCC1B, IC50 (µM) (range)” value is “did not inhibit; also recorded: inactive”.

As for `CC1(c2ccccc2)Cc2cc(OCC(=O)O)c(Cl)c(Cl)c2C1=O` (stereo not drawn) [Indacrinone], in the data set with NKCC2 [1], the IC50 is 12 µM.

With `Cc1cccc(Nc2ccncc2S(=O)(=O)NC(=O)NC(C)C)c1` [Torasemide], the 50% inhibitory concentration (IC50) on hNKCC1A was 6.18 µM; on hNKCC1B, 8.19 µM; in the data set on NKCC2 [9], 0.3 µM. Also, the “Ratio hNKCC1A/ hNKCC1B” value on hNKCC1A is 0.755. In [4] (ref [33]), the plasma protein binding result is recorded as “highly bound to plasma proteins”. Further, in data set [5] (30 min after i.v. 10 mg/kg, ref [34]), the “brain:plasma concentration ratio” value is listed as 0.00024. The “clinical diuretic potency relative to furosemide” value in [8] was “about 3 times”.

Turning to `CN1C(=O)C(N2CCCCC2)S/C1=C/C(=O)O` (stereo not drawn) [Ozolinon], in the data set with NKCC2 [1], the IC50 is 11 µM.
